This is an account of results in article PMC11892739, “Site-specific molecular glues for the 14-3-3/Tau pS214 protein–protein interaction via reversible covalent imine tethering” (RSC Medicinal Chemistry, 2025).

SMILES strings stand for the structures.

The experiment concerns 14-3-3γ/Tau pS324 interaction. Briefly: Fluorescence anisotropy 14-3-3γ titration with compound and monovalent Tau pS324 peptide. It counts as binding. Particulars: for apparent cooperativity factor (app. α), 14-3-3γ/Tau pS324: 2D titrations, 14-3-3γ titrated at varied compound concentrations, saturation of the ratio. As for the experimental part: FA assays in which 14-3-3γ was titrated to a constant concentration of compound (250 μM) in the presence of the distinct monovalent Tau peptide (10 nM) were performed.
The determined stabilization factors are concentration-dependent (here 250 μM of compound) and might differ based on assay design. […] The app. α-factors of these compounds for both 14-3-3/Tau complexes were determined by 14-3-3γ titrations in the presence of varied concentrations of the particular compound (Fig. 5d and e). Both compounds reached saturation for both 14-3-3γ/Tau complexes enabling accurate determination of the α-factor. The app. α-factors of aldehydes 1 and 18 were plotted for both 14-3-3γ/Tau complexes to investigate phospho-binding site selective cooperativity (Fig. 5f and h). To do so, the stabilization factors at a given compound concentration were plotted against the compound concentration, leading to the determination of the app. α-factors. […]
chromatography (HisTrap high performance cartridges, Cytiva). […] Dialyzed protein was concentrated to ∼40 mg/mL, analyzed by Q -Tof LC/MS, and aliquots were flash -frozen for storage at −80 °C. […] Fractions containing the 14 -3-3 protein were pooled and concentrated to ∼60 mg/mL, analyzed Q -Tof LC/MS, and aliquots were flash -frozen for storage at −80°C.
Fluorescence Anisotropy – compound titration
Compound titration assays were performed by titrating compounds (in 1% DMSO, starting at 500 μM) in a 2-fold dilution series to preformed complex of fluorescein -labeled Tau pS2 (10 nM) and 14 -3-3ζ (100 nM) (which represents approximately 20% bound Tau pS2 peptide to 14 -3-3ζ to allow further complex formation by addition of fragments 1) in FA buffer (10 mM HEPES pH 7.4, 150 mM NaCl, 50 µM TCEP, 0.1% (v/v) Tween20, 0.1% (w/v) BSA). […] Measurements were performed directly after plate preparation, using a Tecan SPARK plate reader at room temperature ( λex: 485±20 nm; λem: 535±25 nm; mirror: automatic; flashes: 30; settle time: 1 ms; gain: optimal; Z -position: calculated from well). […]
On the technique in general: Fluorescence polarisation rises when a labelled molecule tumbles more slowly, as on binding a larger partner.

As for `O=Cc1ccc(-n2ccnc2-c2ccccc2)cc1Br` [Compound 1], the “apparent cooperativity factor (app. α), 14-3-3γ/Tau pS324” value is reported as 6.8.

Consider `CCc1ccc(-c2nccn2-c2ccc(C=O)c(Br)c2)cc1` [Compound 18], for which the “apparent cooperativity factor (app. α), 14-3-3γ/Tau pS324” value turned out to be 3.6. In addition, the “SF250μM for the 14-3-3γ/Tau pS324 complex” value (250 μM compound, 10 nM Tau pS324 peptide, internal DMSO reference) is reported as 3.2.
